# According to PMC2850272 (Bioorganic & medicinal chemistry, 2010):
# Conditions: pH 7.4
row,Substance,Permeability (PAMPA)
1,"2-(Benzo[d][1,3]dioxol-5-yl)-3-(ethoxymethyl)-5-methoxyquinoline [30b]",2796±1746 10^−6 cm/s
2,"2-(Benzo[d][1,3]dioxol-5-yl)-4-chloro-3-(ethoxymethyl)-7-methoxyquinoline [28a]",802±370 10^−6 cm/s
3,"Ethyl 2-(benzo[d][1,3]dioxol-5-yl)-5-methoxy-4-(methylamino)quinoline-3-carboxylate [25b]",1240±154 10^−6 cm/s
4,"Ethyl 2-(benzo[d][1,3]dioxol-5-yl)-7-methoxy-4-(methylamino)quinoline-3-carboxylate [25a]",2013±179 10^−6 cm/s
